Results published in US8748415B2 (priority 2011, dated 2014).

Tested on: recombinant NL4-3 virus (Renilla luciferase in nef, Gag P373S)
Assay: HIV cell culture assay (luciferase activity in MT-2 cells infected with NLRluc recombinant virus)
Assay type: cell-based
Conditions: NL43, MT-2 cells infected 4-5 days with NLRluc recombinant virus, class symbol
Method in brief: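 MT-2 cells in RPMI/10% FBS were infected with recombinant NL4-3 (NLRluc), produced by 293T transfection and titered in MT-2 by luciferase. Serial inhibitor dilutions were present throughout a 4–5 day infection. Antiviral activity was quantified as Renilla luciferase signal via a modified Dual Luciferase read.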

Compound C=C(C)[C@@H]1CC[C@]2(CNC(=O)NCC(=O)OC)CC[C@]3(C)[C@H](CC[C@@H]4[C@@]5(C)CC=C(c6ccc(C(=O)O)cc6)C(C)(C)[C@@H]5CC[C@]43C)[C@@H]12 [Example 158, 4-((1R,3aS,5aR,5bR,7aR,11aS,11bR,13aR,13bR)-3a-((3-(2-methoxy-2-oxoethyl)ureido)methyl)-5a,5b,8,8,11a-pentamethyl-1-(prop-1-en-2-yl)-2,3,3a,4,5,5a,5b,6,7,7a,8,11,11a,11b,12,13,13a,13b-octadecahydro-1H-cyclopenta[a]chrysen-9-yl)benzoic acid] has an EC50 of less than 0.1 µM.
Compound C=C(C)[C@@H]1CC[C@]2(CNCCCN3CCS(=O)(=O)CC3)CC[C@]3(C)[C@H](CC[C@@H]4[C@@]5(C)CC=C(c6ccc(C(=O)O)cc6F)C(C)(C)[C@@H]5CC[C@]43C)[C@@H]12 [Example 92, 4-((1R,3aS,5aR,5bR,7aR,11aS,11bR,13aR,13bR)-3a-(((3-(1,1-dioxido-4-thiomorpholinyl)propyl)amino)methyl)-1-isopropenyl-5a,5b,8,8,11a-pentamethyl-2,3,3a,4,5,5a,5b,6,7,7a,8,11,11a,11b,12,13,13a,13b-octadecahydro-1H-cyclopenta[a]chrysen-9-yl)-3-fluorobenzoic acid] has an EC50 of less than 0.1 µM.
C=C(C)[C@@H]1CC[C@]2(CN(CCCN3CCS(=O)(=O)CC3)C(C)=O)CC[C@]3(C)[C@H](CC[C@@H]4[C@@]5(C)CC=C(c6ccc(C(=O)O)cc6)C(C)(C)[C@@H]5CC[C@]43C)[C@@H]12 [Example 17, 4-((1R,3aS,5aR,5bR,7aR,11aS,11bR,13aR,13bR)-5a,5b,8,8,11a-pentamethyl-1-(prop-1-en-2-yl)-3a-((3-(1-dioxo-thiomorpholino)propylamino)methyl)-2,3,3a,4,5,5a,5b,6,7,7a,8,11,11a,11b,12,13,13a,13b-octadecahydro-1H-cyclopenta[a]chrysen-9-yl)benzoic acid] showed an EC50 of less than 0.1 µM.
Compound C=C(C)[C@@H]1CC[C@]2(CNCCS(C)(=O)=O)CC[C@]3(C)[C@H](CC[C@@H]4[C@@]5(C)CC=C(c6ccc(C(=O)O)cc6)C(C)(C)[C@@H]5CC[C@]43C)[C@@H]12 [Example 41, 4-((1R,3aS,5aR,5bR,7aR,11aS,11bR,13aR,13bR)-5a,5b,8,8,11a-pentamethyl-3a-((2-(methylsulfonyl)ethylamino)methyl)-1-(prop-1-en-2-yl)-2,3,3a,4,5,5a,5b,6,7,7a,8,11,11a,11b,12,13,13a,13b-octadecahydro-1H-cyclopenta[a]chrysen-9-yl)benzoic acid] has an EC50 of less than 0.1 µM.
C=C(C)[C@@H]1CC[C@]2(CNCCCNC)CC[C@]3(C)[C@H](CC[C@@H]4[C@@]5(C)CC=C(c6ccc(C(=O)O)cc6)C(C)(C)[C@@H]5CC[C@]43C)[C@@H]12 [Example 19, 4-((1R,3aS,5aR,5bR,7aR,11aS,11bR,13aR,13bR)-5a,5b,8,8,11a-pentamethyl-3a-((3-(methylamino)propylamino)methyl)-1-(prop-1-en-2-yl)-2,3,3a,4,5,5a,5b,6,7,7a,8,11,11a,11b,12,13,13a,13b-octadecahydro-1H-cyclopenta[a]chrysen-9-yl)benzoic acid] gave an EC50 of less than 0.1 µM.
With C=C(C)[C@@H]1CC[C@]2(CNCCC(=O)N3CCN(S(=O)(=O)N(C)C)CC3)CC[C@]3(C)[C@H](CC[C@@H]4[C@@]5(C)CC=C(c6ccc(C(=O)O)cc6)C(C)(C)[C@@H]5CC[C@]43C)[C@@H]12 [Example 97, 4-((1R,3aS,5aR,5bR,7aR,11aS,11bR,13aR,13bR)-3a-((3-(4-(N,N-dimethylsulfamoyl)piperazin-1-yl)-3-oxopropylamino)methyl)-5a,5b,8,8,11a-pentamethyl-1-(prop-1-en-2-yl)-2,3,3a,4,5,5a,5b,6,7,7a,8,11,11a,11b,12,13,13a,13b-octadecahydro-1H-cyclopenta[a]chrysen-9-yl)benzoic acid] the EC50 was less than 0.1 µM.
Work on C=C(C)[C@@H]1CC[C@]2(CN(C)CCCN3CCS(=O)(=O)CC3)CC[C@]3(C)[C@H](CC[C@@H]4[C@@]5(C)CC=C(c6ccc(C(=O)O)cc6)C(C)(C)[C@@H]5CC[C@]43C)[C@@H]12 [Example 15, 4-((1R,3aS,5aR,5bR,7aR,11aS,11bR,13aR,13bR)-5a,5b,8,8,11a-pentamethyl-1-(prop-1-en-2-yl)-3a-((3-(1-dioxo-thiomorpholino)propylamino)methyl)-2,3,3a,4,5,5a,5b,6,7,7a,8,11,11a,11b,12,13,13a,13b-octadecahydro-1H-cyclopenta[a]chrysen-9-yl)benzoic acid] yielded an EC50 of less than 0.1 µM.
Compound C=C(C)[C@@H]1CC[C@]2(CNCC(=O)N3CCCCC3)CC[C@]3(C)[C@H](CC[C@@H]4[C@@]5(C)CC=C(c6ccc(C(=O)O)cc6)C(C)(C)[C@@H]5CC[C@]43C)[C@@H]12 [Example 130, 4-((1R,3aS,5aR,5bR,7aR,11aS,11bR,13aR,13bR)-5a,5b,8,8,11a-pentamethyl-3a-((2-oxo-2-(piperidin-1-yl)ethylamino)methyl)-1-(prop-1-en-2-yl)-2,3,3a,4,5,5a,5b,6,7,7a,8,11,11a,11b,12,13,13a,13b-octadecahydro-1H-cyclopenta[a]chrysen-9-yl)benzoic acid] has an EC50 of less than 0.1 µM.
For C=C(C)[C@@H]1CC[C@]2(CNC(=O)[C@@H]3CCCN3C(C)=O)CC[C@]3(C)[C@H](CC[C@@H]4[C@@]5(C)CC=C(c6ccc(C(=O)O)cc6)C(C)(C)[C@@H]5CC[C@]43C)[C@@H]12 [Example 138, 4-((1R,3aS,5aR,5bR,7aR,11aS,11bR,13aR,13bR)-3a-(((S)-1-acetylpyrrolidine-2-carboxamido)methyl)-5a,5b,8,8,11a-pentamethyl-1-(prop-1-en-2-yl)-2,3,3a,4,5,5a,5b,6,7,7a,8,11,11a,11b,12,13,13a,13b-octadecahydro-1H-cyclopenta[a]chrysen-9-yl)benzoic acid], the EC50 was less than 0.1 µM.
Work on C=C(C)[C@@H]1CC[C@]2(CNCCN(C(C)C)C(C)C)CC[C@]3(C)[C@H](CC[C@@H]4[C@@]5(C)CC=C(c6ccc(C(=O)O)cc6)C(C)(C)[C@@H]5CC[C@]43C)[C@@H]12 [Example 57, 4-((1R,3aS,5aR,5bR,7aR,11aS,11bR,13aR,13bR)-3a-((2-(diisopropylamino)ethylamino)methyl)-5a,5b,8,8,11a-pentamethyl-1-(prop-1-en-2-yl)-2,3,3a,4,5,5a,5b,6,7,7a,8,11,11a,11b,12,13,13a,13b-octadecahydro-1H-cyclopenta[a]chrysen-9-yl)benzoic acid] yielded an EC50 of less than 0.1 µM.
In the case of C=C(C)[C@@H]1CC[C@]2(CNCCC(=O)N3CCC(C(=O)OCC)CC3)CC[C@]3(C)[C@H](CC[C@@H]4[C@@]5(C)CC=C(c6ccc(C(=O)O)cc6)C(C)(C)[C@@H]5CC[C@]43C)[C@@H]12 [Example 98, 4-((1R,3aS,5aR,5bR,7aR,11aS,11bR,13aR,13bR)-3a-((3-(4-(ethoxycarbonyl)piperidin-1-yl)-3-oxopropylamino)methyl)-5a,5b,8,8,11a-pentamethyl-1-(prop-1-en-2-yl)-2,3,3a,4,5,5a,5b,6,7,7a,8,11,11a,11b,12,13,13a,13b-octadecahydro-1H-cyclopenta[a]chrysen-9-yl)benzoic acid], the EC50 is reported as less than 0.1 µM.
C=C(C)[C@@H]1CC[C@]2(CNCCCN3CCS(=O)(=O)CC3)CC[C@]3(C)[C@H](CC[C@@H]4[C@@]5(C)CC=C(c6ccc(C(=O)NS(=O)(=O)C7CC7)cc6)C(C)(C)[C@@H]5CC[C@]43C)[C@@H]12 [Example 172, benzamide, N-(cyclopropylsulfonyl)-4-((1R,3aS,5aR,5bR,7aR,11aS,11bR,13aR,13bR)-3a-(((3-(1,1-dioxido-4-thiomorpholinyl)propyl)amino)methyl)-1-isopropenyl-5a,5b,8,8,11a-pentamethyl-2,3,3a,4,5,5a,5b,6,7,7a,8,11,11a,11b,12,13,13a,13b-octadecahydro-1H-cyclopenta[a]chrysen-9-yl)benzamide] was tested, and the EC50 was less than 0.1 µM.
Compound C=C(C)[C@@H]1CC[C@]2(CNCCN3CCC(F)(F)CC3)CC[C@]3(C)[C@H](CC[C@@H]4[C@@]5(C)CC=C(c6ccc(C(=O)O)cc6)C(C)(C)[C@@H]5CC[C@]43C)[C@@H]12 [Example 48, 4-((1R,3aS,5aR,5bR,7aR,11aS,11bR,13aR,13bR)-3a-((2-(4,4-difluoropiperidin-1-yl)ethylamino)methyl)-5a,5b,8,8,11a-pentamethyl-1-(prop-1-en-2-yl)-2,3,3a,4,5,5a,5b,6,7,7a,8,11,11a,11b,12,13,13a,13b-octadecahydro-1H-cyclopenta[a]chrysen-9-yl)benzoic acid] has an EC50 of less than 0.1 µM.
Compound C=C(C)[C@@H]1CC[C@]2(CNCCC(=O)N3CCS(=O)(=O)C3)CC[C@]3(C)[C@H](CC[C@@H]4[C@@]5(C)CC=C(c6ccc(C(=O)O)cc6)C(C)(C)[C@@H]5CC[C@]43C)[C@@H]12 [Example 120, 4-((1R,3aS,5aR,5bR,7aR,11aS,11bR,13aR,13bR)-3a-(((3-(1,1-dioxido-1,3-thiazolidin-3-yl)-3-oxopropyl)amino)methyl)-1-isopropenyl-5a,5b,8,8,11a-pentamethyl-2,3,3a,4,5,5a,5b,6,7,7a,8,11,11a,11b,12,13,13a,13b-octadecahydro-1H-cyclopenta[a]chrysen-9-yl)benzoic acid] has an EC50 of less than 0.1 µM.
C=C(C)[C@@H]1CC[C@]2(CNCCC(=O)N3CCC(C(=O)O)CC3)CC[C@]3(C)[C@H](CC[C@@H]4[C@@]5(C)CC=C(c6ccc(C(=O)O)cc6)C(C)(C)[C@@H]5CC[C@]43C)[C@@H]12 [Example 104, 1-(3-(((1R,3aS,5aR,5bR,7aR,11aS,11bR,13aR,13bR)-9-(4-carboxyphenyl)-5a,5b,8,8,11a-pentamethyl-1-(prop-1-en-2-yl)-2,3,3a,4,5,5a,5b,6,7,7a,8,11,11a,11b,12,13,13a,13b-octadecahydro-1H-cyclopenta[a]chrysen-3a-yl)methylamino)propanoyl)piperidine-4-carboxylic acid] was tested, and the EC50 was less than 0.1 µM.
